Results as given in article PMC6756013, “B591, a novel specific pan-PI3K inhibitor, preferentially targets cancer stem cells” (Oncogene, 2019).
pIC50: −log10 of the molar value.

Key:
[1] = tested on: eIF4E [nuc:cyto] ratio in SMMC7721, HepG2, MCF7, MDA-MB-231 and A549 cells; assay: Immunofluorescence and high content assay of eIF4E localization; assay type: cell-based; conditions: 5 h, five human cancer cell lines
Source text: The mRNA 5′ cap-binding protein eukaryotic initiation factor 4E (eIF4E) is a key regulator of cap-dependent translation initiation in the cytoplasm. Elevated level of eIF4E has been implicated in oncogenic transformation and tumorigenesis. The availability of eIF4E is tightly controlled through regulated interaction with 4E-BPs. eIF4E is predominantly cytoplasmic in mammalian cells, whereas serum-starvation and/or rapamycin-treatment: conditions that suppress mTOR signaling induces an accumulation of eIF4E within the nucleus. By using immunofluorescence assay, we assessed the effect of B591 on eIF4E subcellular localization of eIF4E. […] Further, five human cancer cell lines (SMMC7721, HepG2, MCF7, MDA-MB-231, and A549) were respectively treated with different concentrations of B591 for 5 h and eIF4E [nuc:cyto] ratios were determined by a high content assay using Thermo Scientific Cellomics ArrayScan VTI HCS.
Cells were seeded in 96-well plates (5,000 cells/well) and treated with DMSO or B591 for 5 h. Cells were then fixed with 4 % paraformaldehyde and followed by permeabilization with 0.1% triton X-100 and blocking in 2% bovine serum albumin in PBS. […] The subcellular location of eIF4E and the eIF4E nuclear–cytoplasmic intensity of each field per well was monitored and analyzed by using ArrayScan® VTI HCS Reader according to manufacturer’s instruction.

[2] = tested on: CHO cells stably expressing EGFP-Akt1; assay: Akt1 redistribution (IGF-1-stimulated membrane translocation of EGFP-Akt1); assay type: cell-based
Source text: Growth factors such as insulin-like growth factor 1 (IGF-1) and cytokines such as interleukin-6 stimulate and activate PI3K, leading to a subsequent increase of plasma membrane translocation and phosphorylation of Akt. Activated Akt promotes cell survival, cell growth and proliferation in human cancers.
Fig. 2 B591 inhibits PI3K/Akt pathway in multiple cancer cell lines. a Representative images of Akt1 redistribution in IGF-1-treated cells in the absence or presence of B591. Scale bar represents 10 μm. Arrows indicate IGF-1-mediated membrane translocation detected by the image analysis algorithm. b Inhibition of mTORC1 and mTORC2 signaling in multiple cancer cell lines, exposed for 5 h to increasing concentrations of B591. c HepG2 cells were treated with DMSO or 20 μM of B591 for 5 h. Immunofluorescence (red) intensity reflects eIF4E subcellular distribution. Cells were visualized with high content reader. Representative images are shown, and scale bar represents 50 μm. d Nuclear-to-cytoplasmic ratio of eIF4E in five cancer cell lines was determined via high content reader. e The phosphorylation of AKT and ERK was determined by immunoblotting in RD cells in the presence of 10 μM of B591 after indicated time of exposure. f Inhibition of the phosphorylation of AKT and ERK in RD cells treated with B591, PI-103 or Rapamycin for 24 h was determined by immunoblotting […]

PDGFRA (PDGFR alpha) = biological target: T1, PDGFRA (PDGFR alpha) (Homo sapiens, UniProt P16234); assay: Biochemical kinase profiling (Life Technologies)
T1 construct: purchased Life Technologies
T1 sequence (P16234 24-1089): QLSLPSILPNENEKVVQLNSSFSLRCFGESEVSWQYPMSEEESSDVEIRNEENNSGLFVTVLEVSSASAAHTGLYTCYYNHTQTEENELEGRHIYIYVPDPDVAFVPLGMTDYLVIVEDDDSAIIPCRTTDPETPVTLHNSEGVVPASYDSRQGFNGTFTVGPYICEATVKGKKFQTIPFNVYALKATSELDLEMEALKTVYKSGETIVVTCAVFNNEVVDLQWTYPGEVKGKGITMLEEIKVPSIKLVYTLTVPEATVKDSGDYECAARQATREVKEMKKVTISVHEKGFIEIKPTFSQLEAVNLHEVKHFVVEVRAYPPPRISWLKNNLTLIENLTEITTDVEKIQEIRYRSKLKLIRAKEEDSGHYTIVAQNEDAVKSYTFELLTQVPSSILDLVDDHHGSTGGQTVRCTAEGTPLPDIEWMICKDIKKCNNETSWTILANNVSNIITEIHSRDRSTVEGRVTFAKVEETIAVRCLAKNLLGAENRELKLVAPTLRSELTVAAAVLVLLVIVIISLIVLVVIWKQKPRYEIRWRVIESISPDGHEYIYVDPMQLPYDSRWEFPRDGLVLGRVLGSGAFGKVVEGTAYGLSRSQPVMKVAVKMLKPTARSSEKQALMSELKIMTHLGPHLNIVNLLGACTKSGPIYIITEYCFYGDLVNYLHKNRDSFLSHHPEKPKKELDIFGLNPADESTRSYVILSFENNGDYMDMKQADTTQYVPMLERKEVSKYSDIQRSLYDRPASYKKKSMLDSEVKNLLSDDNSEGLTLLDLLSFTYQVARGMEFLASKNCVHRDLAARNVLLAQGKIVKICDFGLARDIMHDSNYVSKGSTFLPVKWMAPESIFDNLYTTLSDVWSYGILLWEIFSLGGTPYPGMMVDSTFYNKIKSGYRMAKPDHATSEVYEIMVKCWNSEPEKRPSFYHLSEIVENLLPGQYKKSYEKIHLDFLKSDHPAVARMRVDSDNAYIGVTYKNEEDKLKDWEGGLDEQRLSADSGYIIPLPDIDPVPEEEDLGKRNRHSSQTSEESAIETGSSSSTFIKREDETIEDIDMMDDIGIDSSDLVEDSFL
Protocol: (§1) Purified PI3K Class I Lipid Kinase, including p110α/p85α, p110β/p85α, p110γ, and p110δ/p85α (Promega, Madison, WI, USA), was respectively incubated with B591 for 30 min at room temperature. The activity of PI3K was evaluated using a PI3-Kinase Activity ELISA kit (K-1000s, Echelon, Salt Lake City, UT, USA) according to the manufacture’s instructions. The assay is a competitive ELISA in which the signal is inversely proportional to the amount of PI(3,4,5)P3 produced. After the PI3-Kinase reactions are complete, reaction products are first mixed and incubated with a PI(3,4,5)P3 detector protein, then added to the PI(3,4,5)P3-coated microplate for competitive binding. A peroxidase-linked secondary detector and colorimetric detection is used to detect PI(3,4,5)P3 detector binding to the plate. The colorimetric signal is inversely proportional to the amount of PI(3,4,5)P3 produced by PI3-Kinase. The absorbance was measured at 450 nm with a Multilabel Reader (PerkinElmer, Waltham, MA, USA). ATP competition assays were executed with varying concentrations of ATP, and five concentrations of ATP were 5 μM, 25 μM, 50 μM, 100 μM, and 200 μM respectively. The IC50 values for inhibition of PI3Kβ by B591 were determined at indicated concentrations of ATP. In addition, B591 selectivity was tested against 39 kinases at Life Technologies.

JAK1 = JAK1 (Homo sapiens, UniProt P23458); assay: Biochemical kinase profiling (Life Technologies)
Protocol: as §1

PRKCZ (PKC zeta) = biological target: T2, PRKCZ (PKC zeta) (Homo sapiens, UniProt Q05513); assay: Biochemical kinase profiling (Life Technologies)
T2 construct: purchased Life Technologies
T2 sequence (Q05513 whole entry): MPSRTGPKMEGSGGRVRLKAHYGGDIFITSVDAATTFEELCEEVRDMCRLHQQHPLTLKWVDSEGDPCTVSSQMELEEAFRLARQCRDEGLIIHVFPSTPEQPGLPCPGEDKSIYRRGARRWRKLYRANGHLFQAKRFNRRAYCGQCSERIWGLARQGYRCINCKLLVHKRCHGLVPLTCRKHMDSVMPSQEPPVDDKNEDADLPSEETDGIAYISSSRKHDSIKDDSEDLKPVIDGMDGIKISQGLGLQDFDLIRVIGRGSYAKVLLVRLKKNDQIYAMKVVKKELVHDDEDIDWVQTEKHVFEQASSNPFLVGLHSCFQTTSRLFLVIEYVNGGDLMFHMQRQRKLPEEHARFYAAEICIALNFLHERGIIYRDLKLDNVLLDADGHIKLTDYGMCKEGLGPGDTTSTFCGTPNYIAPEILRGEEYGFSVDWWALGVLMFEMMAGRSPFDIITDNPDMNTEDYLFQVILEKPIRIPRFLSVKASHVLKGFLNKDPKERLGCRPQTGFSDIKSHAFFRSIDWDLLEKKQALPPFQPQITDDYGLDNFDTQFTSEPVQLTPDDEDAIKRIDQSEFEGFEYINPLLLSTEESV
Protocol: as §1

PTK2 (FAK) = PTK2 (FAK) (Homo sapiens, UniProt Q05397); assay: Biochemical kinase profiling (Life Technologies)
PTK2 (FAK), sequence (Q05397 whole entry): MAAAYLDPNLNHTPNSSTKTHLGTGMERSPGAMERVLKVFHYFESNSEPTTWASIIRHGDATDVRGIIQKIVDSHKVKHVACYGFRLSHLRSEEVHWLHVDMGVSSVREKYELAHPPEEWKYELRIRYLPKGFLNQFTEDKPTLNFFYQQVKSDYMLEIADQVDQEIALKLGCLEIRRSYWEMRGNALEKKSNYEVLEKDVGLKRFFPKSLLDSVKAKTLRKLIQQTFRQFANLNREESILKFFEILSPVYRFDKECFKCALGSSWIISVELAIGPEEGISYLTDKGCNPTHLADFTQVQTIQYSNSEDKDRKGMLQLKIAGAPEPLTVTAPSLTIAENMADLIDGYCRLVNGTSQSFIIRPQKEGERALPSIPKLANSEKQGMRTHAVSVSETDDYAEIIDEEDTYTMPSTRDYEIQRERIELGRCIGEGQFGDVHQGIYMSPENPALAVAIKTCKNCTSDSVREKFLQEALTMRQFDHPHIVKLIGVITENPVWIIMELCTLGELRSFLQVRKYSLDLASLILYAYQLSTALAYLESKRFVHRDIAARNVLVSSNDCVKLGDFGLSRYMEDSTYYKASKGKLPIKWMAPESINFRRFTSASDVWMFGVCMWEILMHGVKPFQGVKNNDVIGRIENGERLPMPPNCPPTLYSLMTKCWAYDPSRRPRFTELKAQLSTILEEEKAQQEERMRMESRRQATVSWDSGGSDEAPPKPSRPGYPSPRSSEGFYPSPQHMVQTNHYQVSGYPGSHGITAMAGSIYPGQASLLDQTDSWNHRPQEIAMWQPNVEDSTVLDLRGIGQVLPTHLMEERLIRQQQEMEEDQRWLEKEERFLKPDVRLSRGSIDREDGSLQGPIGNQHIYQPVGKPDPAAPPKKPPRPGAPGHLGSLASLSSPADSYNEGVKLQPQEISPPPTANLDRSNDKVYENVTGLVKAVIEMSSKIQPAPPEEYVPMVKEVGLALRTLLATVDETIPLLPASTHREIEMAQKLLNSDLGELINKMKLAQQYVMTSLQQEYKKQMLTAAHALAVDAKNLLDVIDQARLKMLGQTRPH
Protocol: as §1

EPHA2 = biological target: T3, EPHA2 (Homo sapiens, UniProt P29317); assay: Biochemical kinase profiling (Life Technologies)
T3 construct: purchased Life Technologies
Protocol: as §1

LYN B = LYN B (Homo sapiens, UniProt P07948); assay: Biochemical kinase profiling (Life Technologies)
Protocol: as §1

GSK3A (GSK3 alpha) = GSK3A (GSK3 alpha) (Homo sapiens, UniProt P49840); assay: Biochemical kinase profiling (Life Technologies)
Protocol: as §1

EPHA8 = biological target: T4, EPHA8 (Homo sapiens, UniProt P29322); assay: Biochemical kinase profiling (Life Technologies)
T4 construct: purchased Life Technologies
T4 sequence (P29322 28-1005): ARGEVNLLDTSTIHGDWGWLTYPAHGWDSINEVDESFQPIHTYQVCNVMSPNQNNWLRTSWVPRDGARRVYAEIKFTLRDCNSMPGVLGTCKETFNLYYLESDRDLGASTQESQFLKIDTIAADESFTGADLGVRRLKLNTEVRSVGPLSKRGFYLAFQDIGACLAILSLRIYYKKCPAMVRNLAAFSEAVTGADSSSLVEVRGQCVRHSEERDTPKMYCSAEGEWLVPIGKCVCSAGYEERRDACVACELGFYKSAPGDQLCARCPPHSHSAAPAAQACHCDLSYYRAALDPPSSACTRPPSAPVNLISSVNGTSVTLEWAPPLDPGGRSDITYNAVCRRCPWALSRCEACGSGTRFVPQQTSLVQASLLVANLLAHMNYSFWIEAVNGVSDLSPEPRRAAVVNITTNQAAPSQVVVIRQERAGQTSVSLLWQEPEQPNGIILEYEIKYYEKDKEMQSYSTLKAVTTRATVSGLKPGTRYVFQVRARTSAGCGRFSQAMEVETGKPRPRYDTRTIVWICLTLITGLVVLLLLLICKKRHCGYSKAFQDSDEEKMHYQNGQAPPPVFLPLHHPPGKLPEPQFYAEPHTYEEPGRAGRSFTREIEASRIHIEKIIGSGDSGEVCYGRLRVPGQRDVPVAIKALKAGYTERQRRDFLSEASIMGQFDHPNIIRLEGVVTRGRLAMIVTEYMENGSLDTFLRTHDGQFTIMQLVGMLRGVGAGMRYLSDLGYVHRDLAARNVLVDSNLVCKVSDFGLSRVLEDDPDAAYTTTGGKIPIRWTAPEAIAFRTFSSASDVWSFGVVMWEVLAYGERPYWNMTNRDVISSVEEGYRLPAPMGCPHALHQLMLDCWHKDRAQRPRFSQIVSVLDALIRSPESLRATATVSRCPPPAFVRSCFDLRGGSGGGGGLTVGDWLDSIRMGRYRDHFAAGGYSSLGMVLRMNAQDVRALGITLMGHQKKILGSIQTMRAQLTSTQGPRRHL
Protocol: as §1

GSK3B (GSK3 beta) = GSK3B (GSK3 beta) (Homo sapiens, UniProt P49841); assay: Biochemical kinase profiling (Life Technologies)
Protocol: as §1

MET (cMet) = biological target: T5, MET (cMet) (Homo sapiens, UniProt P08581); assay: Biochemical kinase profiling (Life Technologies)
T5 construct: purchased Life Technologies
T5 sequence (P08581 25-1390): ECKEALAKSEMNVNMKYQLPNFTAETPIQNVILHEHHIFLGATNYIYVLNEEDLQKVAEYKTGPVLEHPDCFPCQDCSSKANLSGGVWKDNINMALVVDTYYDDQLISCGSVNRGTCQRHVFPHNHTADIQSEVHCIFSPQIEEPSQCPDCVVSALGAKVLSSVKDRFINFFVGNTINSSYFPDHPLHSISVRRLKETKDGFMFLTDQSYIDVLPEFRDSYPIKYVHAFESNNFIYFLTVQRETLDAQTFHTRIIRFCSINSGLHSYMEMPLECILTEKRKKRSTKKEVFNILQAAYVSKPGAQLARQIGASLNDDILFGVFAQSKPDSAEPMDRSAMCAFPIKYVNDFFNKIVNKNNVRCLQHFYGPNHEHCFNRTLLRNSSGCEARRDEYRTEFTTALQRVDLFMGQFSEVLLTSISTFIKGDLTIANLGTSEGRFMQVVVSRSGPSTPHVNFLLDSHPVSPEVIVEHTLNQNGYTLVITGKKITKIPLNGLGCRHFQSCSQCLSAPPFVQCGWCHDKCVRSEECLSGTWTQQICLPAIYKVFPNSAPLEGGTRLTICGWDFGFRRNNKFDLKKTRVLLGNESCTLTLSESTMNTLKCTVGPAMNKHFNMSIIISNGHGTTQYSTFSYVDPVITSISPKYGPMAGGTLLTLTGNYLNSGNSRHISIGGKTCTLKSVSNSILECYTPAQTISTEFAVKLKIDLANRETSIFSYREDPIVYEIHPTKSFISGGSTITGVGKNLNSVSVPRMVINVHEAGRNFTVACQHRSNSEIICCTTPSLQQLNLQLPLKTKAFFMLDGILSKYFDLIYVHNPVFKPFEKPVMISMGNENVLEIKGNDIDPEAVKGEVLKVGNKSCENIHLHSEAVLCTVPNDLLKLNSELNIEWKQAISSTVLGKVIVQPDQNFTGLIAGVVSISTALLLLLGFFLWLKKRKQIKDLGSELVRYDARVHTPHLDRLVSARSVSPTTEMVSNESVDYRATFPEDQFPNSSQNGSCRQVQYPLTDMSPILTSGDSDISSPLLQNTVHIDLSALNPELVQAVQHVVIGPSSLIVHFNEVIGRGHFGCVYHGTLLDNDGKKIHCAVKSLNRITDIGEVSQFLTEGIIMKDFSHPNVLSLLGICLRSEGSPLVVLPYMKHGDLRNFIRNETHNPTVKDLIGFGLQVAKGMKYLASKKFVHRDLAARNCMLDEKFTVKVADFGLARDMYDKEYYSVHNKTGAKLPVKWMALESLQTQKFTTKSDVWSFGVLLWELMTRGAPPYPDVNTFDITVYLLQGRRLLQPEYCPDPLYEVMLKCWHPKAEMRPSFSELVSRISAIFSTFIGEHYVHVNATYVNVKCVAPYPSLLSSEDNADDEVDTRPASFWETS
Protocol: as §1

Cc1cc2c(cc1C)[n+](Cc1ccccc1Br)cn2Cc1ccc2c(c1)CCO2.[Br-] [B591, 3-(2-bromobenzyl)-1-((2,3-dihydrobenzofuran-5-yl)methyl) -5,6-dimethyl-1H-benzo[d]imidazol-3-ium bromide]
eIF4E [nuc:cyto] ratio [1]: increased eIF4E [nuc:cyto] ratios in all the five cancer cells in a dose-dependent manner | IGF-1-stimulated translocation of Akt to the plasma membrane [2]: potently prevented this translocation event in a concentration-dependent manner | pIC50 (PDGFRA (PDGFR alpha)): < 3.30 | pIC50 (JAK1): < 3.30 | pIC50 (PRKCZ (PKC zeta)): < 3.30 | pIC50 (PTK2 (FAK)): < 3.30 | pIC50 (EPHA2): < 3.30 | pIC50 (LYN B): < 3.30 | pIC50 (GSK3A (GSK3 alpha)): < 3.30 | pIC50 (EPHA8): < 3.30 | pIC50 (GSK3B (GSK3 beta)): < 3.30 | pIC50 (MET (cMet)): < 3.30
